According to ChEMBL document CHEMBL3297726, “Isolation and structure elucidation of cystargamide, a lipopeptide from Kitasatospora cystarginea” (J Nat Prod, 2014):
Activity calls are given as the source filed them. Positions of bridges follow the written chain, without caps; N, C: chain ends. Non-standard residues stand in square brackets, D forms with d. Residues, ends and D or L forms follow the SMILES beside them. *: point of attachment. Trp(5-OH) = N[C@@H](Cc1c[nH]c2ccc(O)cc12)C(=O)O; Hpg = N[C@H](C(=O)O)c1ccc(O)cc1; X1 = CCCCCCCC1OC1C(=O)*

How the values were obtained:
Assay type in all cases: functional, organism-based
[1] = tested on: Enterococcus faecium; assay: Antimicrobial activity against vancomycin-resistant Enterococcus faecium EF379 assessed as growth inhibition at 128 ug/ml
[2] = tested on: Staphylococcus aureus; assay: Antimicrobial activity against methicillin-resistant Staphylococcus aureus ATCC 33591 assessed as growth inhibition at 128 ug/ml
[3] = tested on: Candida albicans; assay: Antimicrobial activity against Candida albicans ATCC 14035 assessed as growth inhibition at 128 ug/ml
[4] = tested on: Staphylococcus warneri; assay: Antimicrobial activity against Staphylococcus warneri ATCC 17917 assessed as growth inhibition at 128 ug/ml

Measured: growth inhibition (GI)

CCCCCCCC1OC1C(=O)N[C@@H]1C(=O)N[C@@H](Cc2ccccc2)C(=O)N[C@@H](CCC(=O)O)C(=O)N[C@@H](Cc2c[nH]c3ccc(O)cc23)C(=O)N[C@@H](c2ccc(O)cc2)C(=O)NCC(=O)O[C@@H]1C (some centres undefined) (X1-TFE[Trp(5-OH)][Hpg]G; ester 1-C)
inactive: [1] | [2] | [3] | [4]
